The values that follow come from US11154519B2, “Inhibitors and their uses” (MEDICAL RESEARCH COUNCIL, priority 2015, dated 2021).

Series [1] has as its system HeLa cells. Kind of series: Cytoprotection against ER stress (tunicamycin), IncuCyte. Type of series: cell-based. To be noted: Homo sapiens, 250 ng/ml Tunicamycin, 72 hours, compound 0-20 μM, read-out: Cytoprotection from Tm (compared to GNB). As for the experimental part:
(§1) HeLa cells (40,000 cells/ml) were plated in a 96-well plate and treated with different concentrations (0-20 μM) of a compound as indicated in the presence of 250 ng/ml Tunicamycin for 72 hours. To monitor cell death 1/2000 dilution of the CellTox green dye (Promega) was added to the media. The growth of the cells was monitored over time and pictures taken every 2 hours with the IncuCyte ZOOM system and analysed by the IncuCyte ZOOM software (Essen BioScience). […] Cytoprotection against ER stress can be measured by a suitable assay. In this instance, cytoprotection was measured in HeLa cells in which ER stress was elicited by the addition of media containing tunicamycin, a drug that blocks N-glycosylation, thereby preventing protein folding and inducing the unfolded protein response. Cell viability was then detected in the presence and absence of a compound listed in Table 1 after a set period of time, by monitoring cell growth over time. Cytoprotection from ER stress was measured in terms of the percentage increase in viable cells (relative to control) after ER stress.

Another series deals with T1, PPP1R15B-PP1 (Homo sapiens, UniProt Q5SWA1).
T1 construct: cDNAs encoding amino acids 325-636 of PPP1R15A and 340-698 of PPP1R15B were His-tagged and cloned into pMAL-c5x; made in house; host or cells: R15B: E. coli BL21-Gold (pMAL-c5x); PP1γ: Sf9 insect cells (baculovirus, pDW464)
Briefly: SPR steady-state binding to R15B-PP1 holophosphatase. To be noted: SPR steady-state, MBP-R15B340-698-His captured on bio-PP1c, 10° C.; read-out: R15B (KD). As for the experimental part:
(§2) PPP1R15A^325-636 and PPP1R15B^340-698 were expressed and purified as follows: the cDNAs encoding amino acids 325-636 of PPP1R15A and 340-698 of PPP1R15B were His-tagged and cloned into pMAL-c5x. Recombinant PPP1R15A/B were expressed in BL21-Gold cells and purified by affinity chromatography on a HisTrap HP column (GE Healthcare), followed by a MBPTrap HP column (GE Healthcare). The proteins were analyzed on BOLT SDS-PAGE 4-12% Bis-Tris gels (Life Technologies) stained with SimplyBlue SafeStain (Life Technologies). cDNA encoding for human PP1γ was cloned into the baculovirus transfer vector pDW464 to add a biotin acceptor peptide (BAP). The vector also encodes for the E. coli biotin holoenzyme synthetase (BirA), so that BAP-tagged proteins can be biotinylated in vivo in Spodoptere frugiperda (Sf9) insect cells (Duffy et al., Anal. Biochem., 262, 122-128, 1998). The Bac-to-Bac baculovirus expression system (Life Technologies) was used to generate the recombinant bacmid DNA and Sf9 insect cells were used to amplify the viral stocks Cultures were harvested by centrifuging at 1,200 g for 15 minutes, cell pellets were resuspended in lysis buffer (50 mM Tris pH 7.4, 150 mM NaCl, 0.2% Triton, 5% Glycerol, 1 PiC tablet (Roche) per 50 ml and 0.2 mM PMSF) and followed by gentle sonication. The protein was first purified on a 5 ml HiTrap Q HP column (GE Healthcare) followed by a HiLoad 16/600 Superdex 200 column (GE Healthcare). The positive fractions confirmed by SDS-PAGE and western blot were pooled, concentrate to ˜1 μM and stored at −80° C.
(§3) A Biacore T200 (GE Healthcare) system was used for all experiments and biotinylated PP1 was captured using a Sensor Chip SA (GE Healthcare, catalog no BR-1005-31). The streptavidin coated surface was activated by 1 min injection with a solution of 50 mM NaOH and 1 M NaCl. Biotin-PP1 was diluted in the running buffer (50 mM Tris pH 7.5, 100 mM NaCl, 0.1 mM EGTA, 1 mM MnCl2, 0.05% Tween 20) and injected at approximately 300 nM concentration directly to streptavidin coated surface for 100 sec or to reach immobilization level of biotin-PP1 corresponding to ˜7000 RU. A blank immobilization was performed for one of the SA sensor chip surface to use as a reference.
(§4) With minor deviations, the same procedure and conditions were used in all binding experiments. Small molecules were stored as 50 mM stock solutions in 100% DMSO. Prior to determining binding constants, serial dilutions of either 12 or 8 concentrations of the compounds were prepared in the running buffer in a 96-well plate. Prior to each compound dilution series the regulatory subunit, R15A or R15B, was diluted to […] in the running buffer and captured on the biotin-PP1 surface, to form the holophosphatase complex on the sensor chip surface. Then, without regenerating the surface, the compound dilution series was injected onto the surface of the chip Sensorgrams were analyzed using the Biacore T200 evaluation software and the binding constants determined based on a steady-state model. Kinetic experiments are carried out using different concentrations of the compound and their respective equilibrium binding levels determined.
(§5) Surface Plasmon Resonance (SPR) was used to measure the binding affinity of compounds to the PPP1R15A/B-PP1 phosphatase complex. Biotin acceptor peptide (BAP) was fused to the N-terminus of PP1γ, which enables the biotinylation of the BAP-tagged protein in Sf9 insect cells. After purification the BAP-PP1γ protein was captured on a streptavidin sensor chip (SA-chip, GE healthcare) to a response level of ˜5.000 RU. Using controlled biotinylation enables orientated and uniform immobilization on the sensor chip surface. The PP1γ was then used to capture PPP1R15A/B and form a holophosphatase complex on the surface of the streptavidin chip. This complex can then be used to test binding of compounds. 10 μM PPP1R15A/B protein concentration was used to form the holophosphatase complex during a 80 s injection. […]

Another series relates to R15A or R15B. Briefly: Selective binding towards R15A or R15B (based on SPR). Set-up: species or system human. On the procedure: In one embodiment, the compounds of formula IB inhibit PPP1R15A and PPP1R15B. Inhibition of PPP1R15A and PPP1R15B can be determined from binding analysis. For example, binding can be analysed using SPR (surface plasmon resonance) to obtain KD values. A PPP1R15A and PPP1R15B inhibitor may be defined as a compound where the difference in KD values between R15A and R15B is no more than about 3 fold.
Small molecules were stored as 50 mM stock solutions in 100% DMSO. Prior to determining binding constants, serial dilutions of either 12 or 8 concentrations of the compounds were prepared in the running buffer in a 96-well plate. Prior to each compound dilution series the regulatory subunit, MBP-R15A^325-636-His or MBP-R15B^340-698-His, was diluted to 10 μM in the running buffer and captured on the bio-PP1c surface at a flow rate of 30 μl/min for 1 minute to form the holophosphatase complex on the sensor chip surface. This was followed by 1 minute stabilization period, to wash off any unspecific binding. Then, without regenerating the surface, the compound dilution series was injected onto the surface of the chip at a flow rate of 30 μl/min for 1 minute, followed by 2 minutes dissociation time. After each dilution series the surface was regenerated using 3 M NaCl for 90 seconds. After regeneration, SPR responses generally returned to base levels and the bio-PP1c surface was ready for the next compound dilution series. In order to be able to correct for small variations in DMSO concentration between samples, eight solvent samples ranging from 0.06 to 8% DMSO were injected every 50th cycle. The flow cell temperature was 10° C.
Sensorgrams were analyzed using the Biacore T200 evaluation software and the binding constants determined based on a steady-state model. Kinetic experiments are carried out using different concentrations of the compound and their respective equilibrium binding levels determined.

The target in a further series is T2, PPP1R15A-PP1 complex (Homo sapiens, UniProt O75807).
T2 construct: cDNAs encoding amino acids 325-636 of PPP1R15A and 340-698 of PPP1R15B were His-tagged and cloned into pMAL-c5x; made in house; host or cells: R15A: E. coli BL21-Gold (pMAL-c5x); PP1γ: Sf9 insect cells (baculovirus, pDW464)
Briefly: SPR steady-state binding to R15A-PP1 holophosphatase. To be noted: SPR steady-state, MBP-R15A325-636-His captured on bio-PP1c, 10° C.; read-out: R15A (KD). On the procedure: as §2, §3, §4, §5

Series [2] concerns HeLa cells. Kind of series: Cell death dose response (CellTox green, IncuCyte). Format: cell-based. To be noted: for Effect on cell death: IncuCyte, 0-20 μM. On the procedure: Toxicity of the compounds is assessed using Cell viability Counting Kit-8 (Dojindo) or in a Incucyte (Essenbioscience) using both phase contrast and IncuCyte™ Cytotox Green Reagent.
as §1
EC50 were extrapolated from dose response experiments on cell death. Data from IncuCyte was plotted and analysed in Prism. The “% of cell death” for each data point. For each concentration there is a % of cell death vs time, the area under the curve was taken and plotted against log conc=>EC50 (analysis in Prism).

Another series addresses T3, PP1 (Homo sapiens, UniProt P36873).
T3 construct: made in house; host or cells: Sf9 insect cells (baculovirus, pDW464)
Briefly: SPR binding to PP1 alone. The settings on record: SPR steady-state, bio-PP1c surface.

Series [3] has as its system protein synthesis. Briefly: Assessment of translation rates (35S-methionine labelling). Type of series: cell-based. As for the experimental part: Cells (90,000 cells/ml) were plated in 12-well plates, treated as indicated, labelled with 100 μCi/mI 35S-methionine (Hartmann Analytic) for 10 minutes at 37° C., washed with ice-cold PBS and lysed in 120 μl Laemmli Buffer. Lysates were boiled at 95° C. for 5 minutes, sonicated and resolved on 4-12% Bolt Bis-Tris Plus Gels (Thermo Fisher Scientific). Gels were then stained with InstantBlue (Expedeon) and analyzed by phosphorimaging and quantified using ImageJ.
By monitoring translation rates as described above, the activities of R15A, R15B and R15A/B inhibitors can be defined as follows (also shown in FIG. 12). An R15A inhibitor has no effect on translation in unstressed cells but prolongs translation attenuation following stress. A selective R15B inhibitor transiently attenuate protein synthesis because R15A compensates for the inhibition of R15B.

The next series concerns mice. Briefly: Side effects of Guanabenz: activity of mice after dosing. Format: in vivo. The settings on record: 10 mg/kg oral gavage. On the procedure:
To assess whether of a compound of Example 1 had the side effects of Guanabenz, mice (n>3) were gavaged orally with 10 mg/kg of compound or Guanabenz. Their activity was monitored 30 minutes following dosing.
In humans, the adrenergic agonist activity of Guanabenz has side effects including drowsiness and coma at high doses (A. H. Hall, Ann Intern Med 102; 787-788; 1985). Due to of these side effects, Guanabenz is no longer used in human. It is anticipated that Guanabenz derivatives have the side effects of Guanabenz, associated with alpha-2 adrenergic activity.

Series [4] has as its system protein synthesis. The settings on record: unstressed cells; Tsaytler et al., Science 2011; cited from earlier work.

SMILES strings stand for the structures.

T2 sequence (O75807 325-636): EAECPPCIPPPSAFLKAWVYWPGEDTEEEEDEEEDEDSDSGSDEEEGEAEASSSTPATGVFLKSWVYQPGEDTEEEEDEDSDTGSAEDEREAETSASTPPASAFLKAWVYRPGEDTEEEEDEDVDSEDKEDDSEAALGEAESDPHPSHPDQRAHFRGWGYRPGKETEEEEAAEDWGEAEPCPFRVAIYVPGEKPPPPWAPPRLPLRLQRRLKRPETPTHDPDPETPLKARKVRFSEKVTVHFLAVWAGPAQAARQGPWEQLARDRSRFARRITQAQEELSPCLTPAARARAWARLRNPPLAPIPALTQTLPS
T2 sequence (P36873 whole entry partner, the tested form may be a part): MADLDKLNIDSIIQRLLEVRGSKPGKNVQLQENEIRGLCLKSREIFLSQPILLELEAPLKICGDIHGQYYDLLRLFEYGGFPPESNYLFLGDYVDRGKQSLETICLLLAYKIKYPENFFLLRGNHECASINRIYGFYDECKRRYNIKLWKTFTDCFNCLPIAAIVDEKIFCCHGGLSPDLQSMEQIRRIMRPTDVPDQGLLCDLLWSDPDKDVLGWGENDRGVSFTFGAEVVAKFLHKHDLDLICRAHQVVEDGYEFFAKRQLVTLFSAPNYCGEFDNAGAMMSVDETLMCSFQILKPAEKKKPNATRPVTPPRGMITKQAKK
T1 sequence (Q5SWA1 340-698): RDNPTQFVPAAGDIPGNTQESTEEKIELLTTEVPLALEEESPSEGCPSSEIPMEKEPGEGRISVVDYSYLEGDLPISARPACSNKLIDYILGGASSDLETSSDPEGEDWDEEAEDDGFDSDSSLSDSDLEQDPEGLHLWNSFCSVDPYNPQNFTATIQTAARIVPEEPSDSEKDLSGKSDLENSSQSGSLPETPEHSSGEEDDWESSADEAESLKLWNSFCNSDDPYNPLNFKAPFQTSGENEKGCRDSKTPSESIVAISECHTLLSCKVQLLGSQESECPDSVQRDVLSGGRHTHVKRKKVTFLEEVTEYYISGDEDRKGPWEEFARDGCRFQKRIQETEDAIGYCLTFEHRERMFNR
T1 sequence (P36873 whole entry partner, the tested form may be a part): as the sequence (P36873 whole entry partner, the tested form may be a part) above
T3 sequence (P36873 whole entry): as the sequence (P36873 whole entry partner, the tested form may be a part) above

As for `[H]/N=C(\N)NN=Cc1cnc(Cl)nc1Cl` [Compound 2, (E)-2-((2,4-dichloropyrimidin-5-yl)methylene)hydrazine-1-carboximidamide], in the series with HeLa cells [1], the Emax was 0%. Besides, the Kd on PPP1R15B-PP1 is 9.22 µM; on PPP1R15A-PP1 complex, 46.4 ± 18.3 µM. In the series on R15A or R15B, the “Selective binding towards R15A or R15B (based on SPR)” value was “R15B (A “selective inhibitor” may be defined as a compound where the difference in KD values between R15A and R15B is greater than 3 fold)”. Also, the EC50 in the series on HeLa cells [2] (Homo sapiens, area under % cell death vs time curve against log conc, read-out: Effect on cell death ⇒ EC50) came to 7.71 µM. For the same molecule, the “Effect on cell death” value with HeLa cells [2] was “Yes”.
Consider `N=C(N)N/N=C/c1cc(Cl)c(Cl)cc1Cl` [Compound 4, (E)-2-(2,4,5-trichlorobenzylidene)hydrazine-1-carboximidamide], for which the Emax with HeLa cells [1] stood at 80%. The Kd at PPP1R15B-PP1 was 0.022 ± 0.02 µM; at PPP1R15A-PP1 complex, 0.457 ± 0.13 µM; at PP1, 332 µM. Also, the “Selective binding towards R15A or R15B (based on SPR)” value with R15A or R15B is “R15AB (A PPP1R15A and PPP1R15B inhibitor may be defined as a compound where the difference in KD values between R15A and R15B is no more than about 3 fold)”. Also, the “Effect on cell death” value in the series on HeLa cells [2] is listed as “No”.
On to `[H]/N=C(\N)NN=Cc1cccc(F)c1Cl` [Compound 25, (E)-2-(2-chloro-3-fluorobenzylidene)hydrazine-1-carboximidamide], for which, in the series on HeLa cells [1], the Emax turned out to be 54%. Also, the Kd on PPP1R15B-PP1 amounted to 9.22 ± 0.19 µM; on PPP1R15A-PP1 complex it was 6.18 ± 3.31 µM; at PP1, 3.65 µM. In addition, the “Selective binding towards R15A or R15B (based on SPR)” value in the series with R15A or R15B was “R15AB (A PPP1R15A and PPP1R15B inhibitor may be defined as a compound where the difference in KD values between R15A and R15B is no more than about 3 fold)”. Moreover, the “Effect on cell death” value with HeLa cells [2] is on record as “No”.
As to `[H]/N=C(\N)NN=Cc1ccc(F)c(F)c1Cl` [Compound 27, (E)-2-(2-chloro-3,4-difluorobenzylidene)hydrazine-1-carboximidamide], the Emax in the series with HeLa cells [1] came to 57%. Moreover, the “Effect on translation ⇒ Inhibits” value in the series with protein synthesis [3] (target(s) concluded to be inhibited) was “R15AB”. The Kd on PPP1R15A-PP1 complex is 10.6 µM. Moreover, the “Effect on cell death” value with HeLa cells [2] is recorded as “No”.
With `[H]/N=C(\N)NN=Cc1cc(F)c(F)cc1Cl` [Compound 32, (E)-2-(2-chloro-4,5-difluorobenzylidene)hydrazine-1-carboximidamide], the Emax in the series with HeLa cells [1] came to 100%. Also, the Kd worked out at 17.3 µM at PPP1R15B-PP1 and 4.82 ± 0.26 µM on PPP1R15A-PP1 complex. Also, in the series with protein synthesis [3] (35S-methionine labelling of cells), the Effect on translation result is reported as “Persistent”. In addition, the “Effect on cell death” value in the series on HeLa cells [2] was “No”.
As for `N=C(N)N/N=C/c1c(Cl)cccc1Cl` [Guanabenz, reference compound], the “activity of mice 30 minutes following dosing” value in the series with mice is recorded as “did not move 30 minutes after dosing”. Besides, the protein synthesis result with protein synthesis [4] is given as “doesn't inhibit protein synthesis in untressed cells”. Besides, the protein synthesis rates result in the series with protein synthesis [3] (unstressed cells, 10 μM, FIG. 12) was “doesn't inhibit protein synthesis in unstressed cell”.
